{"source": "patent US20260325485A1", "about": "“COMPOSITIONS AND METHODS FOR TREATING PANCREATITIS” (The United States Government as represented by the …, priority 2022, published 2026)", "key": {"[1]": {"system": "cerulein pancreatitis (CER-AP)", "assay": "Drug treatment of cerulein pancreatitis (CER-AP) in WT mice", "type": "in vivo, mouse", "experimental": "FIGS. 10A-10N show deranged cholesterol metabolism causes acinar cell damage, while its normalization ameliorates experimental pancreatitis. (A-D) Cholesterol content and trypsin activity were measured (per mg protein) in WT mouse acinar cells incubated for 1 hour without and with methyl-β-cyclodextrin (MCD; 10 mM) or cholesterol-loaded MCD (MCD-Chol; 200 μg/mL), in the presence or absence of 100 nM CCK. Values are expressed relative to those in cells without MCD/MCD-Chol. (E-J) WT mice received daily i.p. injections of the LXR agonist T0901317 (T09), simvastatin (Sim; 20 mg/kg each), or vehicle. On day 4, mice were subjected to CER-AP and pancreata collected for analyses (see also FIG. 20). Cholesterol content (E), trypsin activity (F), and pancreas histopathology (H&E staining; G) were measured. (H, I, L, and N) IB analysis of markers/mediators of autophagy (LC3, p62), ER stress (CHOP, GRP-78), and mitophagy (Parkin). Ub, ubiquitylated proteins. (J) Mitochondrial fragmentation was assessed by immunostaining for Tom20, as detailed in FIG. 7G. (K and L) Mouse acinar cells were treated for 16 hours with LDL (30 μg/mL) or the combination of LDL and 10 μM U18666A. (M and N) Mice received injections of U18666A as detailed in FIG. 9B. Pancreas histopathology (H&E staining; M) and levels of autophagy markers/mediators (N) were measured. Each symbol in A-F and I represents an individual mouse or cell preparation. Values are mean±SEM from 3 to 7 mice or cell preparations per condition. ^§ P<0.05, ^§§ P<0.01 vs. control cells (without MCD/MCD-Chol). ***P<0.001 vs. saline-treated mice. ^#P<0.05, ^##P<0.01, ^###P<0.001 vs. CER-AP alone (no inhibitors). Significance was determined by 2-tailed Student's t test (A-D) or 1-way ANOVA followed by Tukey's multiple comparison test (E, F, and I). Scale bars: 10 μm.\nFIGS. 20A-20C show simvastatin improves cerulein pancreatitis. Mice received daily i.p. injections of simvastatin (Sim; 20 mg/kg) or vehicle (see FIG. 10), and on day 4 were subjected to cerulein pancreatitis (CER-AP). (A) Pancreas histopathology (H&E staining; scale: 10 μm). (B) IB analysis of markers/mediators of autophagy (LC3, p62), ER stress (CHOP), and the MLN64/STARD3 protein mediating cholesterol transfer from LE/Ly to mitochondria. Each IB lane represents an individual mouse; ERK1/2 is the loading control. […] Ub, ubiquitylated proteins. (C) Pancreatitis responses. Values are mean±SEM from 7-13 mice for each condition. ***p<0.001 vs saline control. ^###p<0.001 vs CER-AP alone (no simvastatin). Significance was determined by 1-way ANOVA followed by Tukey's multiple comparisons test.\nFIGS. 25A-25C show reducing cholesterol overload greatly ameliorates experimental pancreatitis. CER-AP responses were measured in (A) AclyAac or (C) WT mice treated with simvastatin or bempedoic acid (BemA). (B) Acinar cells were transfected with ACLA (or mock) siRNA and subjected to ex-vivo CCK-AP. Each symbol represents an individual mouse or cell preparation. Values are mean±SE. **p<0.01, ***p<0.001 vs saline treated control mice (or mock transfection); #p<0.05, ##p<0.01, ###p<0.001 vs CER/CCK-AP in control mice (i.e. without inhibitors) or cells.\nCerulein-induced (CER-AP) and L-arginine induced (Arg-AP) acute pancreatitis models were performed in 12-week-old C57BL/6 mice that received 7 hourly i.p. injections of 50 μg/kg cerulein or 3 hourly i.p. injections of 3.3 g/kg Arg; controls received physiologic saline injections. Mice were euthanized for analyses 7 hours after the first cerulein or 24 hours after the first Arg injection. Choline deficient, ethionine-supplemented (CDE) pancreatitis was induced in young (~5-weeks old) female mice fed either CDE or control diet. Mice were euthanized 72 hours after the diet initiation. These models have been described in detail (1-7).\n12-week-old WT mice were subjected for 4 consecutive days to daily i.p. injections of 20 mg/kg simvastatin (8,9) or 20 mg/kg T0901317 (10); or 10 mg/kg U18666A for 15 days (11). […]"}, "[2]": {"system": "mouse pancreatic acinar cells", "assay": "Ex-vivo CCK-AP in mouse pancreatic acinar cells treated with simvastatin or MCD", "type": "cell-based", "settings": "simvastatin 4 μM, 3 h or MCD 10 mM, 1 h", "experimental": "FIGS. 26A-26D preventing cholesterol overload ameliorates ex-vivo pancreatitis. Mouse pancreatic acinar cells were incubated (A, B) with simvastatin (4 μM, 3 h) or (C, D) cholesterol chelator, methyl-β-cyclodextrin (MCD; 10 mM, 1 h) and then subjected to CCK-AP for 1 (D) or 3 h (A, B). Cholesterol content (A, C) necrosis (B), and trypsin activity (D) were measured. Each symbol represents an individual cell preparation. Values are mean±SEM*p<0/05, **p<0.01 vs control; #p<0.05 ##p<0.01; vs CCK, no inhibitor.\nEx vivo pancreatitis models were performed on mouse and human acinar cells, and human pancreas slices by incubation with supramaximal CCK (100 nM) or carbachol (1 mM), as described previously (80, 81).\nActivities of cathepsin (Cat) B and L, caspase-3, trypsin, and lysosomal acid lipase (LAL) were measured in pancreatic tissue or cell homogenates and subcellular fractions with fluorogenic assays using substrates specific for CatB (Z-Arg-Arg-AMC), CatL (Z-Phe-Arg-AMC), caspase-3-like ([…]), trypsin (Boc-Gln-Ala-Arg-AMC), as previously described (1-4, 6, 7); and for LAL (4-methylumbelliferyl oleate), as in (17). In measurements of CatL activity, the assay buffer also contained 50 μM CA-074me, a CatB inhibitor. LAL activity was measured in the absence and presence of the LAL inhibitor lalistat (100 μM) as the difference between these values (17).\nTotal cholesterol content was measured with Cholesterol Assay kit per manufacturer's instructions. Samples of mouse pancreas and liver, cell pellet homogenates, subcellular fractions, isolated mitochondria, and serum were diluted in the reaction buffer containing cholesterol probe and incubated at 37° C. for 1 h in the dark. To measure total cholesterol, the samples were subjected to digestion with cholesterol esterase. To measure non-esterified cholesterol, the esterase was omitted from the assay."}, "[3]": {"settings": "CER-AP, T0901317 or simvastatin 20 mg/kg i.p. daily"}, "[4]": {"settings": "WT mice treated with simvastatin or BemA"}}}
{"smiles": "CCC(C)(C)C(=O)O[C@H]1C[C@@H](C)C=C2C=C[C@H](C)[C@H](CC[C@@H]3C[C@@H](O)CC(=O)O3)[C@H]21", "note": "[simvastatin]", "values": [{"measurement": "CER-induced increase in MLN64", "setting": "[1]; CER-AP, 20 mg/kg i.p. daily", "value": "abrogated"}, {"measurement": "accumulation of LC3-II", "setting": "[1]; CER-AP, 20 mg/kg i.p. daily", "value": "reduced"}, {"measurement": "accumulation of p62", "setting": "[1]; CER-AP, 20 mg/kg i.p. daily", "value": "reduced"}, {"measurement": "accumulation of ubiquitylated proteins", "setting": "[1]; CER-AP, 20 mg/kg i.p. daily", "value": "reduced"}, {"measurement": "mitochondrial fragmentation (Tom20 IF)", "setting": "[1]; CER-AP, 20 mg/kg i.p. daily", "value": "normalized"}, {"measurement": "CHOP levels", "setting": "[1]; CER-AP, 20 mg/kg i.p. daily, ER stress", "value": "decreased"}, {"measurement": "pancreatitis-induced increase in total cholesterol", "setting": "[1]; [3]", "value": "eliminated"}, {"measurement": "pancreatitis-induced increase in trypsin activity", "setting": "[1]; [3]", "value": "eliminated"}, {"measurement": "other pancreatitis responses", "setting": "[1]; CER-AP, simvastatin 20 mg/kg i.p. daily, FIG. 20C", "value": "ameliorated"}, {"measurement": "pancreas histopathology in CER-AP", "setting": "[1]; H&E, 20 mg/kg i.p. daily", "value": "improved"}, {"measurement": "cholesterol overload in CER-AP (FIG. 25C)", "setting": "[1]; [4]", "value": "decreased"}, {"measurement": "inflammation in CER-AP (FIG. 25C)", "setting": "[1]; [4]", "value": "ameliorated"}, {"measurement": "necrosis in CER-AP (FIG. 25C)", "setting": "[1]; [4]", "value": "ameliorated"}, {"measurement": "trypsin activity in CER-AP (FIG. 25C)", "setting": "[1]; [4]", "value": "ameliorated"}, {"measurement": "pathologic responses of experimental pancreatitis (impaired autophagy, ER stress and others)", "setting": "[1]; discussion statement", "value": "reduced"}, {"measurement": "experimental pancreatitis in WT mouse and ex vivo models", "setting": "[1]; overall result", "value": "ameliorated"}, {"measurement": "cholesterol overload in ex-vivo CCK-AP", "setting": "[2]", "value": "Reducing"}, {"measurement": "extent of necrosis in ex-vivo CCK-AP", "setting": "[2]", "value": "greatly decreased"}, {"measurement": "trypsinogen activation in ex-vivo CCK-AP", "setting": "[2]", "value": "greatly decreased"}]}
